From patent US20240016781A1, “TREATMENT OF KRAS MUTANT CANCERS” (MEI Pharma, Inc., priority 2020, published 2024)
Like-named read-outs stand apart in the source and are kept apart here.

What was measured:
Experiment in all cases: 72-hour CellTiter-Glo 2.0 growth inhibition screen (single agent, 9x9 combination dose matrix)
Type in all cases: cell-based
Panc 04.03 = settings: Panc 04.03, Pancreas, 72 h
Description: (§1) Growth inhibition was determined using a 72-hour CellTiter-Glo®2.0 proliferation assay. Combination format was a 9×9 dose matrix. Six of the 20 cell lines received the original two combinations whilst the remaining 14 cell lines received two additional combinations resulting in four combinations in total. Results have been supplied as both Chalice Analyzer files (.mcc) and raw luminescence data.
(§2) Cell lines that have been preserved in liquid nitrogen are thawed and expanded in growth media (see Appendix I). Once cells have reached expected doubling times, screening begins. Cells are seeded in 25 μl of growth media in black 384-well tissue culture treated plates at 500 cells per well (as noted in Analyzer). Cells are equilibrated in assay plates via centrifugation and placed at 37° C. 5% CO2 for twenty-four hours before treatment. […] Compounds are transferred to assay plates using and Echo acoustic liquid handling system. […] of each compound was added at the appropriate concentration for all combination dose points. Therefore, final assay volume would be 25.05 μl. Assay plates are incubated with compound for 3 days and are then analyzed using CellTiter-Glo 2.0. All data points are collected via automated processes and are subject to quality control and analyzed.
(§3) If T≥V_0:100*(1−(T−V_0)/(V−V_0)) • where T is the signal measure for a test article, V is the untreated/vehicle-treated control measure, and Vo is the untreated/vehicle control measure at time zero (also colloquially referred as TO plates). This formula is derived from the Growth Inhibition calculation used in the National Cancer Institute's NCI-60 high throughput screen. For the purposes of this disclosure, all data analysis was performed in Growth Inhibition (except where noted).
(§4) Inhibition is also provided as a measure of cell viability. […] Inhibition of 100% represents no doubling of cell numbers during the treatment window. Both cytostatic and cytotoxic treatments can yield an Inhibition percentage of 100%. Inhibition percentage is calculated as the following: […]
(§5) The fractional inhibition for each component agent and combination point in the matrix is calculated relative to the median of all untreated/vehicle-treated control wells. The Synergy Score equation integrates the experimentally-observed activity volume at each point in the matrix in excess of a model surface numerically derived from the activity of the component agents using the Loewe model for additivity. Additional terms in the Synergy Score equation (above) are used to normalize for various dilution factors used for individual agents and to allow for comparison of synergy scores across an entire experiment. The inclusion of positive inhibition gating or an Idata multiplier removes noise near the zero-effect level, and biases results for synergistic interactions at that occur at high activity levels. Combinations with higher maximum Growth Inhibition (GI) effects or those which are synergistic at low concentrations will have higher Synergy Scores.
(§6) The CI is a rough estimate of how much drug was needed in combination relative to the single agent doses required to achieve the chosen effect level. CI values in the range of 0.5-0.7 are typical for in vitro measurements of current clinical combinations. The CI error (σCI) is calculated using standard error propagation through the CI calculation based on the isobologram errors. In the Chalice Analyzer, the Best CI is reported from the many CI values calculated for each Icut crossing combination. Among all the measured CI values, the one with the largest single-to-noise level (1−CI)/σCI is reported as the Best CI. Best CI Level is the effect level from which the CI is calculated.

SW48 KRAS (G12C/+) = settings: SW48 KRAS (G12C/+), Colorectal, 72 h; for EC50: read-out: EC50
Description: as §1, §2, §3, §4, §5, §6

Gp2D = settings: Gp2D, Colorectal, 72 h
Description: as §1, §2, §3, §4, §5, §6

HCC1171 = settings: HCC1171, Lung, 72 h
Description: as §1, §2, §3, §4, §5, §6

TOV-21G = settings: TOV-21G, Ovary, 72 h
Description: as §1, §2, §3, §4, §5, §6

[1] = Additional Single Agent Responses (inhibition, % I)
[2] = Additional Single Agent Responses
[3] = growth inhibition (GI) curve, single agent
[4] = growth inhibition (GI), AUC, single agent
[5] = growth inhibition (GI), single agent

EC50 (Panc 04.03; [1]): 1310 nM | IC50 (Panc 04.03; [1]): 1410 nM | EC50 (Panc 04.03; [3]): 1740 nM | GI50 (Panc 04.03; [3]): 1300 nM | IC50 (SW48 KRAS (G12C/+); [1]): 731 nM | EC50 (SW48 KRAS (G12C/+); [1]): 591 nM | GI50 (SW48 KRAS (G12C/+); [3]): 586 nM | EC50 (SW48 KRAS (G12C/+); [3]): 719 nM | EC50 (HCC1171; [1]): 680 nM | IC50 (HCC1171; [1]): 3030 nM | EC50 (HCC1171; [3]): 674 nM | GI50 (HCC1171; [3]): 734 nM
SMILES: CN1CC[C@@H](c2c(O)cc(O)c3c(=O)cc(-c4ccc(C(F)(F)F)cc4Cl)oc23)[C@@H]1CO [MEI-522(Voruciclib)]
Response Area (Panc 04.03; [1]): 2.65 | Max Response (% I) (Panc 04.03; [2]): 92 % I | Response Area (Panc 04.03; [4]): 4.67 | Max Response (% GI) (Panc 04.03; [5]): 168 % GI | Response Area (SW48 KRAS (G12C/+); [1]): 2.74 | Max Response (% I) (SW48 KRAS (G12C/+); [2]): 85 % I | Response Area (SW48 KRAS (G12C/+); [4]): 3.67 | Max Response (% GI) (SW48 KRAS (G12C/+); [5]): 115 % GI | EC50 (Gp2D; [1]): 747 nM | IC50 (Gp2D; [1]): 791 nM | Response Area (Gp2D; [1]): 2.94 | Max Response (% I) (Gp2D; [2]): 94 % I | EC50 (Gp2D; [3]): 1170 nM | GI50 (Gp2D; [3]): 695 nM | Response Area (Gp2D; [4]): 5.14 | Max Response (% GI) (Gp2D; [5]): 176 % GI | Response Area (HCC1171; [1]): 1.62 | Max Response (% I) (HCC1171; [2]): 51 % I | Response Area (HCC1171; [4]): 2.84 | Max Response (% GI) (HCC1171; [5]): 89 % GI | EC50 (TOV-21G; [1]): 1660 nM | IC50 (TOV-21G; [1]): 1730 nM | Response Area (TOV-21G; [1]): 2.63 | Max Response (% I) (TOV-21G; [2]): 95 % I | EC50 (TOV-21G; [3]): 1980 nM | GI50 (TOV-21G; [3]): 1570 nM | Response Area (TOV-21G; [4]): 4.89 | Max Response (% GI) (TOV-21G; [5]): 181 % GI
